Source: ChEMBL document CHEMBL1201862, “PubChem BioAssay data set” (2004)
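Results reflect a 48-hour exposure of cells in 96-well plates to compound at five concentrations. GI50 is the concentration that inhibits growth by half.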 Activity calls are given as the source filed them. No stated cut-off is given here; in the data, active = GI50 up to about 1.1 µM and inactive = higher.

Columns and labels:
Test in all cases: inhibition of tumour cell growth, NCI panel, 48 h
[1] = tested on: MDA-MB-435
[2] = tested on: RPMI-8226
[3] = tested on: PC-3
[4] = tested on: BT-549
[5] = tested on: ACHN
[6] = tested on: EKVX
[7] = tested on: HT-29
[8] = tested on: SK-MEL-28
[9] = tested on: OVCAR-3
[10] = tested on: UO-31
[11] = tested on: COLO 205
[12] = tested on: MDA-N
[13] = tested on: HOP-62
[14] = tested on: DU-145
[15] = tested on: UACC-257
[16] = tested on: SF-295
[17] = tested on: NCI-H522
[18] = tested on: NCI-H23
[19] = tested on: NCI/ADR-RES
[20] = tested on: Hs-578T
[21] = tested on: T47D
[22] = tested on: A498
[23] = tested on: MCF7
[24] = tested on: SF-539
[25] = tested on: UACC-62
[26] = tested on: OVCAR-4
[27] = tested on: U-251
[28] = tested on: K562
[29] = tested on: SN12C
[30] = tested on: OVCAR-8
[31] = tested on: SNB-75
[32] = tested on: SR
[33] = tested on: SK-OV-3
[34] = tested on: HL-60
[35] = tested on: TK-10
[36] = tested on: SF-268
[37] = tested on: LOX IMVI
[38] = tested on: SK-MEL-2
[39] = tested on: 786-0
[40] = tested on: MOLT-4
[41] = tested on: HOP-92
[42] = tested on: Malme-3M
[43] = tested on: IGROV-1
[44] = tested on: CCRF-CEM
[45] = tested on: NCI-H226
[46] = tested on: SK-MEL-5
[47] = tested on: SW-620
[48] = tested on: HCT-116
[49] = tested on: NCI-H460
[50] = tested on: OVCAR-5
[51] = tested on: CAKI-1
[52] = tested on: RXF 393
[53] = tested on: HCT-15
[54] = tested on: SNB-19
[55] = tested on: A549
[56] = tested on: KM12
[57] = tested on: MDA-MB-231
[58] = tested on: M14

## COc1c(-c2nc3ccc(N4CCN(C)CC4)cc3[nH]2)cc(OC)c2[nH]c(CO)nc12
[1]
  GI50: 69.5 µM (inactive)
[2]
  GI50: > 100 µM (inactive)
[3]
  GI50: > 100 µM (inactive)
[4]
  GI50: > 100 µM (inactive)
[5]
  GI50: > 100 µM (inactive)
[6]
  GI50: > 100 µM (inactive)
[7]
  GI50: 79.8 µM (inactive)
[8]
  GI50: > 100 µM (inactive)
[9]
  GI50: > 100 µM (inactive)
[10]
  GI50: > 100 µM (inactive)
[11]
  GI50: 82.4 µM (inactive)
[12]
  GI50: 89.7 µM (inactive)
[13]
  GI50: 92.9 µM (inactive)
[14]
  GI50: 84.5 µM (inactive)
[15]
  GI50: > 100 µM (inactive)
[16]
  GI50: > 100 µM (inactive)
[17]
  GI50: 65.2 µM (inactive)
[18]
  GI50: > 100 µM (inactive)
[19]
  GI50: > 100 µM (inactive)
[20]
  GI50: > 100 µM (inactive)
[21]
  GI50: > 100 µM (inactive)
[22]
  GI50: > 100 µM (inactive)
[23]
  GI50: 54.3 µM (inactive)
[24]
  GI50: > 100 µM (inactive)
[25]
  GI50: > 100 µM (inactive)
[26]
  GI50: 72.6 µM (inactive)
[27]
  GI50: 74.8 µM (inactive)
[28]
  GI50: > 100 µM (inactive)
[29]
  GI50: 74.6 µM (inactive)
[30]
  GI50: > 100 µM (inactive)
[31]
  GI50: 48.3 µM (inactive)
[32]
  GI50: > 100 µM (inactive)
[33]
  GI50: > 100 µM (inactive)
[34]
  GI50: 14.1 µM (inactive)
[35]
  GI50: > 100 µM (inactive)
[36]
  GI50: > 100 µM (inactive)
[37]
  GI50: 88.5 µM (inactive)
[38]
  GI50: > 100 µM (inactive)
[39]
  GI50: 90.8 µM (inactive)
[40]
  GI50: > 100 µM (inactive)
[41]
  GI50: > 100 µM (inactive)
[42]
  GI50: > 100 µM (inactive)
[43]
  GI50: > 100 µM (inactive)
[44]
  GI50: 13.3 µM (inactive)
[45]
  GI50: > 100 µM (inactive)
[46]
  GI50: > 100 µM (inactive)
[47]
  GI50: 74.8 µM (inactive)
[48]
  GI50: 58.6 µM (inactive)
[49]
  GI50: 91 µM (inactive)
[50]
  GI50: > 100 µM (inactive)
[51]
  GI50: > 100 µM (inactive)
[52]
  GI50: > 100 µM (inactive)
[53]
  GI50: > 100 µM
[54]
  GI50: 44.4 µM (inactive)
[55]
  GI50: > 100 µM (inactive)
[56]
  GI50: 49.3 µM (inactive)
[57]
  GI50: 74 µM (inactive)
[58]
  GI50: > 100 µM (inactive)

## CN(Cc1ccccc1)Cn1ccnc1
[1]
  GI50: 51.4 µM (inactive)
[2]
  GI50: 29.2 µM (inactive)
[3]
  GI50: > 75.9 µM (inactive)
[4]
  GI50: > 100 µM (inactive)
[5]
  GI50: > 100 µM (inactive)
[6]
  GI50: > 85.1 µM (inactive)
[7]
  GI50: 29 µM (inactive)
[8]
  GI50: 34.1 µM (inactive)
[9]
  GI50: > 100 µM (inactive)
[10]
  GI50: 54.7 µM (inactive)
[11]
  GI50: 33.5 µM (inactive)
[12]
  GI50: 76 µM (inactive)
[13]
  GI50: > 100 µM (inactive)
[14]
  GI50: > 100 µM (inactive)
[15]
  GI50: 22.4 µM (inactive)
[16]
  GI50: > 82.6 µM (inactive)
[17]
  GI50: 89.3 µM (inactive)
[18]
  GI50: > 85.5 µM (inactive)
[19]
  GI50: > 100 µM (inactive)
[20]
  GI50: > 100 µM (inactive)
[21]
  GI50: > 60.7 µM (inactive)
[22]
  GI50: > 91.6 µM (inactive)
[23]
  GI50: 41 µM (inactive)
[24]
  GI50: > 100 µM (inactive)
[25]
  GI50: > 100 µM (inactive)
[26]
  GI50: > 100 µM (inactive)
[27]
  GI50: > 71 µM (inactive)
[28]
  GI50: 34.7 µM (inactive)
[29]
  GI50: 95.1 µM (inactive)
[30]
  GI50: > 100 µM (inactive)
[31]
  GI50: > 100 µM (inactive)
[32]
  GI50: 26.2 µM (inactive)
[33]
  GI50: > 100 µM (inactive)
[34]
  GI50: > 38.5 µM (inactive)
[35]
  GI50: > 100 µM (inactive)
[36]
  GI50: > 100 µM (inactive)
[37]
  GI50: > 88.3 µM (inactive)
[38]
  GI50: > 100 µM (inactive)
[39]
  GI50: 72.9 µM (inactive)
[40]
  GI50: 46.5 µM (inactive)
[41]
  GI50: 25.7 µM (inactive)
[42]
  GI50: 24.9 µM (inactive)
[43]
  GI50: 36.2 µM (inactive)
[44]
  GI50: 32.2 µM (inactive)
[45]
  GI50: > 100 µM (inactive)
[46]
  GI50: 37.9 µM (inactive)
[47]
  GI50: > 100 µM (inactive)
[48]
  GI50: 39.4 µM (inactive)
[49]
  GI50: 40.3 µM (inactive)
[50]
  GI50: > 100 µM (inactive)
[51]
  GI50: > 100 µM (inactive)
[52]
  GI50: > 100 µM (inactive)
[53]
  GI50: 59.4 µM
[54]
  GI50: > 100 µM (inactive)
[55]
  GI50: > 100 µM (inactive)
[56]
  GI50: > 100 µM (inactive)
[57]
  GI50: > 56 µM (inactive)
[58]
  GI50: 20.5 µM (inactive)
